System: Patients have a diagnosis of Idiopathic Pulmonary Fibrosis, IPF
Test: Treatment of patients with Idiopathic Pulmonary Fibrosis with C21 (Examples 1 and 2)
Format: in vivo, human
Settings: a few weeks after starting treatment
Method: Patients have a diagnosis of Idiopathic Pulmonary Fibrosis, IPF, who generally are above the age of 60 years, often with concomitant diseases, like ischemic heart disease, diabetes etc. Patients may either be treated for IPF with currently established drugs, e.g. pirfenidone and/or nintedanib or treatment-naïve. Each patient receives a compound of the invention, C21, in a dose range between 0.3 mg and 100 mg daily that is administered once or several times daily. Control groups are administered placebo, or one or more currently established therapies, e.g. pirfenidone and/or nintedanib. The compound, C21, is in a formulation hat can be administered to the patient orally, via inhalation, intravenously or as a combination of more than one route of administration for the treatment of IPF. The treatment is evaluated through efficacy variables such as objective measurements of improved lung capacity/cardiac function and subjective symptoms and quality of life—both at visits to doctors' office and in the patient's home or work environment. Beneficial effects are recorded and followed after one to several months' treatment with the compound, C21, vs placebo or vs currently established therapy(-ies), e.g. pirfenidone and/or nintedanib.
Patients have a diagnosis of Idiopathic Pulmonary Fibrosis, IPF, and are treated according to EXAMPLE 1. […] Furthermore, cardiac function tests, e.g. echo or MRI, may indicate improvements in the underlying lung disease resulting in improved cardiac performance. Benefits may also be seen as an improvement in progression-free survival, where the number of deaths is analyzed together with the number of patients presenting with pre-defined marked reduction of FVC and/or exercise capacity. Benefits can be either self-reported or objectively recorded. Improvements in symptoms may include less dyspnea, less cough, less fatigue, increased exercise capacity and improved quality of life. Improvements may be seen in treatment-naïve patients as well as in those already on treatment with established therapies for IPF.

SMILES: CCCCOC(=O)NS(=O)(=O)c1sc(CC(C)C)cc1-c1ccc(Cn2ccnc2)cc1 [Compound C21, N-Butyloxycarbonyl-3-(4-imidazol-1-ylmethylphenyl)-5-iso-butylthiophene-2-sulfonamide]
- dyspnea and cough (patient-reported): slight improvement
- exercise capacity (patient with IPF): without any deterioration
- biomarkers that are relevant for the progression of the disease (blood tests) (patient with IPF, C21 0.3 mg to 100 mg daily): improvement in biomarkers

— patent US20180078529A1, “ANGIOTENSIN II RECEPTOR AGONIST FOR TREATING PULMONARY FIBROSIS” (VICORE PHARMA AB, priority 2015, published 2018)
